These results are taken from patent US12171748B2, “Nitroimidazole formulations” (priority 2018, dated 2024).

For data set [1], the system named is ribotype 027 C. difficile strain (M7404). The data set is described as follows: In vivo mouse trial. On the set-up: species or system C57BL6/J mice. The protocol: Groups of five, six week old, male, C57BL6/J mice were pre-treated with an antibiotic cocktail in the drinking water containing kanamycin (0.4 mg/ml), gentamicin (0.035 mg/ml), colistin (850 U/ml), metronidazole (0.215 mg/ml), vancomycin (0.045 mg/ml) and cefaclor (0.3 mg/ml) for 7 days, followed by three days of cefaclor alone. These antibiotics disrupt the resident microbiota and induce susceptibility to infection with Clostridium difficile. On the day of infection, antibiotic pre-treatment was ceased and mice were switched to plain drinking water prior to infection with a ribotype 027 C. difficile strain (M7404) at a dose of 10^5 spores/mouse by oral gavage. Eight hours post-infection, mice were orally administered 100 ul of the respective treatments, followed by the immediate addition of the treatment to the drinking water. The treatments were replenished fresh daily. The mice were monitored twice daily for signs of infection and faecal samples were analysed by microbiological techniques for the presence of C. difficile spores. Mice were humanely killed when they reached ethical endpoints, which include 10% acute weight loss (in the first 24 hours) or 15% chronic weight loss.

Data set [2] relates to 6 strains of C. difficile. Nature of the data set: Checkerboard assay for antibiotic combinations. The data set is classed as cell-based, Clostridium difficile. On the set-up: unit not given here. As for the experimental part:
The three combinations below were tested vs. 6 strains of C. difficile following the experimental protocols and synergy calculations set out in Magi et al. 2015. • Berberine+Metronidazole • Berberine+Vancomycin • Metronidazole+Vancomycin
In accordance with Magi et al. 2015, synergy is calculated using the equation below: ΣFIC=FICA+FICB=MICA (combine)/MICA (alone)+MICB (combine)/MICB (alone)
When ΣFIC≤0.5, synergy is observed.

The conditions of data set [3]: cited from earlier work; for solubility in hot/boiling ethanol: hot or boiling ethanol; for solubility in hot/boiling water: hot or boiling water.
The conditions of data set [4]: cited from earlier work.
Data set [5] deals with six strains of C. difficile. The data set is described as follows: MIC/MBC of compounds against six strains of C. difficile. The data set is classed as cell-based, Clostridium difficile. The settings on record: vs. the six strains. The protocol:
Eleven natural compounds, metronidazole and a positive control, vancomycin, were tested against six strains of C. difficile as shown in Table 4. […] The eleven natural compounds, or combinations, tested were: • 1. […] Matrine • 6. […] Andrographolide • 8. […] The natural compounds, metronidazole and vancomycin were obtained from commercial sources, e.g. Sigma-Aldrich.

The mark [6] stands for this setting: single agent 50 mg/kg, oral and drinking water, infected mice.

Counter-ions that a name gives are not always drawn. Some results are limits rather than exact numbers.

`COc1ccc2cc3[n+](cc2c1OC)CCc1cc2c(cc1-3)OCO2` [Berb]: the “survival time of mice” value in data set [1] (either 25 mg/kg or 50 mg/kg) is reported as “did not increase the survival time”. For the same molecule, in data set [1] (single agent 25 mg/kg), the “survival D0” value is 100%, the “survival D1” value is 0%, the “survival D1½” value was 0% and the “survival D1¾” value came to 0%. Besides, in data set [1] (single agent 25 mg/kg), the “survival D2” value was 0%, the “survival D3” value amounted to 0% and the “survival D4” value was determined as 0%. Moreover, in data set [1] (single agent 50 mg/kg), the “survival D1” value came to 20%, the “survival D1½” value turned out to be 0%, the “survival D1¾” value is 0% and the “survival D2” value is listed as 0%. In data set [1] (single agent 50 mg/kg), the “survival D3” value is recorded as 0% and the “survival D4” value amounted to 0%. For the same molecule, the “survival D0” value in data set [1] (setting [6]) is 100%. In addition, in data set [2] (Replicate 1), the “MICBerb (alone)” value was 1024. The “MICBerb (combine)” value in data set [2] (Replicate 1, pair 128, 0.5) is 128. Further, the “MICBerb (alone)” value in data set [2] (Replicate 2) amounted to 512. Moreover, the “MICBerb (combine)” value in data set [2] (Replicate 2, pair 128, 0.5) stood at 128.
Turning to `O=C(O)[C@H]1O[C@@H](Oc2cc3oc(-c4ccccc4)cc(=O)c3c(O)c2O)[C@H](O)[C@@H](O)[C@@H]1O` [Baicalin], the “solubility in N,N-dimethylformamide” value in data set [3] (N,N-dimethylformamide) is listed as “diffluent”. Moreover, in data set [3] (alkaline solution, such as sodium bicarbonate, sodium carbonate, sodium hydroxide), the “solubility in alkaline solution” value was “soluble”. Also, the solubility in water entry in data set [3] is “almost insoluble”. For the same molecule, in data set [4], the “stability in alkaline environment” value is “unstable”.
On to `Cc1ncc([N+](=O)[O-])n1CCO` [Metronidazole, 2-methyl-5-nitroimidazole-1-ethanol], for which the “mice survived to the end of the experiment (day 4)” value in data set [1] (Metronidazole (50 mg/kg) group) is given as 1/5. Besides, in data set [1] (either 25 mg/kg or 50 mg/kg), the “survival compared to untreated mice” value was “no statistical difference in survival”. The “survival D0” value in data set [1] (single agent 25 mg/kg) and in data set [1] (setting [6]) was 100% in each case. Besides, the “survival D1” value in data set [1] (single agent 25 mg/kg) was 60%; in data set [1] (single agent 50 mg/kg), 100%. Besides, the “survival D1½” value in data set [1] (single agent 25 mg/kg) was determined as 20%; in data set [1] (single agent 50 mg/kg) it was 100%. Besides, the entries for the “survival D1¾” value in data set [1] (single agent 25 mg/kg) and in data set [1] (single agent 50 mg/kg) were 20% and 100%, respectively. Further, the “survival D2” value in data set [1] (single agent 25 mg/kg) is 0%; in data set [1] (single agent 50 mg/kg) it was 20%. For the same molecule, the “survival D3” value in data set [1] (single agent 25 mg/kg) stood at 0%; in data set [1] (single agent 50 mg/kg), 20%. Also, the “survival D4” value stood at 0% in data set [1] (single agent 25 mg/kg) and 20% in data set [1] (single agent 50 mg/kg). Further, the “MICMet (alone)” value in data set [2] (Replicate 1) is reported as 1; in data set [2] (Replicate 2) it was 2. The “MICMet (combine)” value in data set [2] (Replicate 1, pair 128, 0.5) was found to be 0.5; in data set [2] (Replicate 1, pair 256, 0.25), 0.25; in data set [2] (Replicate 1, pair 256, 0.5), 0.5; in data set [2] (Replicate 2, pair 128, 0.5), 0.5; in data set [2] (Replicate 2, pair 256, 0.25), 0.25; in data set [2] (Replicate 2, pair 256, 0.5), 0.5.
Take `O=C1C=CC2(CCC23C=CC(=O)O3)O1` (stereo not shown) [Anemonin]: the “solubility in cold water” value in data set [3] (cold water) was “slightly soluble”. Moreover, in data set [3], the “solubility in hot/boiling ethanol” value is “soluble” and the “solubility in hot/boiling water” value is reported as “soluble”.
On to `COC(=O)C1=CCCN(C)C1` [arecoline hydrobromide], for which, in data set [3], the solubility in ethanol result is listed as “diffluent” and the solubility in water result was “diffluent”.
Regarding `COc1cc2c(cc1OC)-c1cc3ccc(OC)c(OC)c3c[n+]1CC2` [Palmatine chloride], in data set [3], the solubility in ethanol result was “slightly soluble”, the “solubility in hot/boiling water” value is on record as “soluble” and the solubility in water result is listed as “sparingly soluble”.
As to `C=C1CC[C@@H]2[C@](C)(CO)[C@H](O)CC[C@@]2(C)[C@@H]1C/C=C1/C(=O)OC[C@H]1O` [Andrographolide], in data set [3] (ethanol at ambient temperature), the “solubility in ethanol at ambient temperature” value is listed as “poorly soluble”. Further, in data set [3], the “solubility in hot/boiling ethanol” value is on record as “soluble” and the solubility in water result is “almost insoluble”.
For the molecule `CN[C@H](CC(C)C)C(=O)N[C@H]1C(=O)N[C@@H](CC(N)=O)C(=O)N[C@H]2C(=O)N[C@H]3C(=O)N[C@H](C(=O)N[C@H](C(=O)O)c4cc(O)cc(O)c4-c4cc3ccc4O)[C@H](O)c3ccc(c(Cl)c3)Oc3cc2cc(c3O[C@@H]2O[C@H](CO)[C@@H](O)[C@H](O)[C@H]2O[C@H]2C[C@](C)(N)[C@H](O)[C@H](C)O2)Oc2ccc(cc2Cl)[C@H]1O` [Vancomycin], the MBC range in data set [5] is ≥ 1 µg/mL.
As for `COC(=O)C1=CCCN(C)C1` [Arecoline], in data set [3], the solubility in ethanol entry is given as “produces a solution” and the solubility in water entry was “produces a solution”.
